Results reported in EP4722213A1, “NITROGEN-CONTAINING FUNCTIONAL GROUP-SUBSTITUTED PYRIDAZINOPYRIDONE DERIVATIVE AND USE THEREOF” (Sichuan Huiyu Pharmaceutical Co., Ltd., priority 2023, dated 2024).

Assays:
[1] = Rat liver microsomal metabolic stability; format: in vitro ADME; conditions: rat liver microsomes
Procedure, shortened: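 Rat liver microsomes (1 mg/mL working solution) with test compound (working solution 100 µM) were pre-incubated 5 min at 37 °C, then started with NADPH (4.0 mM working solution). Residual compound measured by LC-MS/MS over time. T1/2 taken from first-order decay, scaled to CLint and hepatic CL with fu = 1.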

[2] = target: T1, SOS1 (Homo sapiens, UniProt Q07889); assay: biochemical
T1 sequence (Q07889 1-1333): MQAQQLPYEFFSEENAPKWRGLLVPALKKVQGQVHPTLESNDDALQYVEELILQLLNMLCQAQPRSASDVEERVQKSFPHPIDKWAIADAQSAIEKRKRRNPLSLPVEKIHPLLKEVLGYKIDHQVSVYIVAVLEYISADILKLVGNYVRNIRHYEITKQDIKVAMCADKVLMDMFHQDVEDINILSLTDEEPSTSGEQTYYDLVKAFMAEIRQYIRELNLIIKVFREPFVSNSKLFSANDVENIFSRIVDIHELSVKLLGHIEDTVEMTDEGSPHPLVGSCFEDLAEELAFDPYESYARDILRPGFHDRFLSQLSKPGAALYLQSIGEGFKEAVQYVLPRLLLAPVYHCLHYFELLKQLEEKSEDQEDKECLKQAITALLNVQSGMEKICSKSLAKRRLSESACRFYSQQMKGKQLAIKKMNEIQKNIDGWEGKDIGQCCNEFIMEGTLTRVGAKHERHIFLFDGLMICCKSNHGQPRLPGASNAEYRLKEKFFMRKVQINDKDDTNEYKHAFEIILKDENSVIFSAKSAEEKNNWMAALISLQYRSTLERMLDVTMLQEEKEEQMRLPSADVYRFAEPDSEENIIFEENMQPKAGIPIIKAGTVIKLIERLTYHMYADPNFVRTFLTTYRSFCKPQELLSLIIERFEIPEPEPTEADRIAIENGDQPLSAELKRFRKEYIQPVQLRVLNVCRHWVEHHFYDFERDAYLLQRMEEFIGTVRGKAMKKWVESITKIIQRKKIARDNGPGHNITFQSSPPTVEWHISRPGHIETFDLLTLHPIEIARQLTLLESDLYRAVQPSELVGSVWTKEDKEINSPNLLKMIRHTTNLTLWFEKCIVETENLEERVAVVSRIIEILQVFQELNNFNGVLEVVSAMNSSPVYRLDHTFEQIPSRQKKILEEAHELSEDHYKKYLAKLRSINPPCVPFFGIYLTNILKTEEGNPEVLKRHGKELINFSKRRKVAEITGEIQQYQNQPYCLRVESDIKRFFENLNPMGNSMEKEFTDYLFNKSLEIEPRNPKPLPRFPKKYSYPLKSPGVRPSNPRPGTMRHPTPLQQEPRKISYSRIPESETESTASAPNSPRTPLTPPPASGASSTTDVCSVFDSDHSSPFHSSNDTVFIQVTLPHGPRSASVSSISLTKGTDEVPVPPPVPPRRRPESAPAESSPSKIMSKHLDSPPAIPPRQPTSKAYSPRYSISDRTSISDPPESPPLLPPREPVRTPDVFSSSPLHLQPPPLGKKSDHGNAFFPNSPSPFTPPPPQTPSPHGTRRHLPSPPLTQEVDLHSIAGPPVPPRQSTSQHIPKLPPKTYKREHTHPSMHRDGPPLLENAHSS

[3] = calculated from T1/2, fu defaulted to 1, read-out: CL(liver)

Row | Structure (SMILES) | half-life at 1 µM ([1]; NADPH, 37°C) | CLint scaled at 1 µM [1, 3] | IC50 [2] | half-life ([1]; NADPH, 37°C) | CLint scaled [1, 3]
1 | CCN1CCN(c2nnc(N[C@H](C)c3cccc(C(F)F)c3F)c3cn(N4CCOCC4)c(=O)cc23)CC1 [Example 109, (R)-4-((1-(3-(difluoromethyl)-2-fluorophenyl)ethyl)amino)-1-(4-ethylpiperazin-1-yl)-6-morpholinopyrido[3 ,4-d]pyridazin-7(6H)-one] | > 5 h | < 7.23 mL/min/kg | 4.2 nM | – | –
2 | CNc1nnc(N[C@H](C)c2cccc(C(F)(F)F)c2C)c2cn(C3CC3)c(=O)cc12 [Example 52, (R)-6-cyclopropyl-4-((1-(2-methyl-3-(trifluoromethyl)phenyl)ethyl)amino)-1-(methylamino)pyrid o[3,4-d]pyridazin-7(6H)-one] | 1.41 h | 19.2 mL/min/kg | 5.7 nM | – | –
3 | CCN1CCN(c2nnc(N[C@H](C)c3cccc(C(F)F)c3F)c3cn(C4(C)CC4)c(=O)cc23)CC1 [Example 216, (R)-4-((1-(3-(difluoromethyl)-2-fluorophenyl)ethyl)amino)-1-(4-ethylpiperazin-1-yl)-6-(1-methylcyclopropyl) pyrido[3,4-d]pyridazin-7(6H)-one] | 4.85 h | 7.43 mL/min/kg | 4.6 nM | – | –
4 | CC(C)N1CCN(c2nnc(N[C@H](C)c3cccc(C(F)F)c3F)c3cn(C4(C)CC4)c(=O)cc23)CC1 [Example 217, (R)-4-((1-(3-(difluoromethyl)-2-fluorophenyl)ethyl)amino)-1-(4-isopropylpiperazin-1-yl)-6-(1-methylcyclopropyl) pyrido[3,4-d]pyridazin-7(6H)-one] | 4.33 h | 8.18 mL/min/kg | 4.6 nM | – | –
5 | CC(C)Nc1nnc(N[C@H](C)c2cccc(C(F)F)c2F)c2cn(C3(C)CC3)c(=O)cc12.O=CO [Example 12, (R)-4-((1-(3-(difluoromethyl)-2-fluorophenyl)ethyl)amino)-1-(isopropylamino)-6-(1-methylcyclopropyl) pyrido[3,4-d]pyridazin-7(6H)-one formate] | 2.5 h | 12.8 mL/min/kg | 4.9 nM | – | –
6 | CCN1CCN(c2nnc(N[C@H](C)c3cccc(C(F)F)c3F)c3cn(C4CC(F)(F)C4)c(=O)cc23)CC1 [Example 98, (R)-6-(3,3-difluorocyclobutyl)-4-((1-(3-(difluoromethyl)-2-fluorophenyl)ethyl)amino)-1-(4-ethylpiperazin-1-yl)pyrido[3,4-d]pyridazin-7(6H)-one] | 3.12 h | 10.8 mL/min/kg | 4.3 nM | – | –
7 | CNc1nnc(N[C@H](C)c2cccc(C(F)(F)F)c2C)c2cn(C3(C)CC3)c(=O)cc12 [Example 73, (R)-4-((1-(2-methyl-3-(trifluoromethyl)phenyl)ethyl)amino)-1-(methylamino)-6-(1-methylcyclopropyl) pyrido[3,4-d]pyridazin-7(6H)-one] | 1.59 h | 17.7 mL/min/kg | 4.4 nM | – | –
8 | CNc1nnc(N[C@H](C)c2cccc(C(F)F)c2F)c2cn(C3(C)CC3)c(=O)cc12.O=CO [Example 9, (R)-4-((1-(3-(difluoromethyl)-2-fluorophenyl)ethyl)amino)-1-(methylamino)-6-(1-methylcyclopropyl) pyrido[3,4-d]pyridazin-7(6H)-one formate] | 4.33 h | 8.2 mL/min/kg | 4.5 nM | – | –
9 | C[C@@H](Nc1nnc(N2CCN(C3CCCC3)CC2)c2cc(=O)n(N3CCOCC3)cc12)c1cccc(C(F)F)c1F [Example 120, (R)-4-((1-(3-(difluoromethyl)-2-fluorophenyl)ethyl)amino)-1-(4-cyclopentylpiperazin-1-yl)-6-morpholinopyrido[3 ,4-d]pyridazin-7(6H)-one] | > 5 h | < 7.23 mL/min/kg | 4.1 nM | – | –
10 | C[C@@H](Nc1nnc(N2CCN(C)CC2)c2cc(=O)n(C3CC3)cc12)c1cccc(C(F)F)c1F [Example 77] | – | – | 5.9 nM | > 5 h | < 7.23 mL/min/kg
11 | C[C@@H](Nc1nnc(N2CCN(C)CC2)c2cc(=O)n(N3CCOCC3)cc12)c1cccc(C(F)F)c1F [Example 110, (R)-4-((1-(3-(difluoromethyl)-2-fluorophenyl)ethyl)amino)-1-(4-methylpiperazin-1-yl)-6-morpholinopyrido[3 ,4-d]pyridazin-7(6H)-one] | > 5 h | < 7.23 mL/min/kg | 3.3 nM | – | –
12 | CC(C)N1CCN(c2nnc(N[C@H](C)c3cccc(C(F)F)c3F)c3cn(N4CCOCC4)c(=O)cc23)CC1 [Example 111, (R)-4-((1-(3-(difluoromethyl)-2-fluorophenyl)ethyl)amino)-1-(4-isopropylpiperazin-1-yl)-6-morpholinopyrido[3 ,4-d]pyridazin-7(6H)-one] | > 5 h | < 7.23 mL/min/kg | 4.4 nM | – | –
13 | C[C@@H](Nc1nnc(N2CCN(C)CC2)c2cc(=O)n(C3(C)CC3)cc12)c1cccc(C(F)F)c1F.O=CO [Example 80, (R)-4-((1-(3-(difluoromethyl)-2-fluorophenyl)ethyl)amino)-6-(1-methylcyclopropyl)-1-(4-methylpiperazin-1-yl)pyrido[3,4-d]pyridazin-7(6H)-one formate] | 2.68 h | 12.1 mL/min/kg | 4.5 nM | – | –
14 | C[C@@H](Nc1nnc(N2CCN(C(C)(C)C)CC2)c2cc(=O)n(C3(C)CC3)cc12)c1cccc(C(F)F)c1F.O=CO [Example 222, (R)-1-(4-(tert-butyl)piperazin-1-yl)-4-((1-(3-(difluoromethyl)-2-fluorophenyl)ethyl)amino)-6-(1-methylcyclopropyl) pyrido[3,4-d]pyridazin-7(6H)-one formate] | 3.63 h | 9.47 mL/min/kg | 5 nM | – | –
15 | C[C@@H](Nc1nnc(N2CCN(C)CC2)c2cc(=O)n(C3CCC3)cc12)c1cccc(C(F)F)c1F [Example 88, (R)-6-cyclobutyl-4-((1-(3-(difluoromethyl)-2-fluorophenyl)ethyl)amino)-1-(4-methylpiperazin-1-yl)pyrido[3,4-d]pyridazin-7(6H)-one] | 2.13 h | 14.4 mL/min/kg | 4.5 nM | – | –
16 | CCN1CCN(c2nnc(N[C@H](C)c3cccc(C(F)F)c3F)c3cn(C4CCC4)c(=O)cc23)CC1 [Example 112, (R)-6-cyclobutyl-4-((1-(3-(difluoromethyl)-2-fluorophenyl)ethyl)amino)-1-(4-ethylpiperazin-1-yl)pyrido[3,4-d]pyridazin-7(6H)-one] | 3.32 h | 10.2 mL/min/kg | 5 nM | – | –
